In PMC7156724, “Potent BRD4 inhibitor suppresses cancer cell-macrophage interaction” (Nature Communications, 2020):
Values joined by “and” are separate entries in the source; they are usually repeats but may differ in a detail not shown here. Equal entries are not always repeated.

Columns and labels:
[1] = tested on: phosphorylated BRD4 and c-MYC; experiment: Western blot of p-BRD4, BRD4 and c-MYC in solid tumor cell lines; type: cell-based, human; conditions: 50 nM, 24 h
Description: (§1) Fig. 2 NHWD-870 inhibited BRD4 phosphorylation and c-MYC expression, and suppressed cell growth. a Representative western blot analysis of p-BRD4 (s484/488), BRD4, c-MYC, and GAPDH after treatment of MDA-MB231, SUM159, A2780 ES-2, and H526 cells with JQ-1 or NHWD-870 at the indicated concentrations for 24 h. GAPDH served as the loading control. Selected from three independent experiments. b MTT assays of H526, A2780, ES-2, and MDA-MB231 cells treated with JQ-1 or NHWD-870 at the indicated concentrations for 5 days. Data are presented as mean ± SEM from three independent experiments. c, d Clonogenic assays of H526, A2780, ES-2 and MDA-MB231 cells treated with 250 nM JQ-1 or NHWD-870 for 5 days. Shown are representative images (c) and quantification of colonies (d). […] Shown are representative images (e) and quantification of relative colony sizes (f). Scale bar, 50 μm. Data are presented as mean ± SEM from five independent experiments. p values were calculated using two-tailed, unpaired t tests in this figure. **p < 0.01; ***p < 0.001. Source data are provided as a Source Data file. […]
4. Protein extraction and w estern blot anal ysis. Freshly dissected unfixed tissue was homogenized in lysis buffer. The lysates were centrifuged at 13,000g for 10 minutes at 4°C. Supernatants were collected and determined with a Bradford Protein Assay kit (Bio-Rad, Hercules, CA). The cell lysates were subjected to SDS-PAGE followed by immunoblotting (Immobilon P; Millipore, Milford, MA) with specific antibodies followed by detection using an enhanced chemilumine scence kit (Amersham Life Science, Arlington Heights, IL). […]

H526 cells = experiment: Clonogenic (colony formation) assay, H526; type: cell-based, human; conditions: H526, 250 nM, 5 days
Description: as §1
(§2) 5. Colony formation assay. Cells were seeded in 6-well plates at 3,000 cells/well […]
(§3) every week. […] Colony numbers were calculated with imageJ version

MDA-MB231 cells = experiment: Clonogenic (colony formation) assay, MDA-MB231; type: cell-based, human; conditions: MDA-MB231, 250 nM, 5 days
Description: as §1, §2, §3

[2] = tested on: NCI-H211 small cell lung cancer (SCLC) cells; experiment: AlamarBlue assay, NCI-H211; type: cell-based; conditions: for Cellular activity in SCLCs (H211), alamarBlue: Fig.1e, replicates
Description: (§4) 3. AlamarBlue assay. AlamarBlue was made by resazurin sodium salt (Sigma, Cat
(§5) # 199303) dissolved in PBS.
(§6) NCI-H211, MDA-MB231 and A375 cells were plated in 96-well plates at approximately 30% confluence and left overnight to adhere. In the following day, […]
(§7) of treatment, 10 μl AlamarBlue reagent (0.3 mg/ml) was added to each well, and after 18h, the florescence intensity in each well was measured using a top-reading fluorescent plate reader with excitation at 530 nm and emission at 590 nm. […]

A2780 cells = experiment: Clonogenic (colony formation) assay, A2780; type: cell-based, human; conditions: A2780, 250 nM, 5 days
Description: as §1, §2, §3

[3] = tested on: MDA-MB231 triple negative breast cancer (TNBC) cells; experiment: AlamarBlue assay, MDA-MB231; type: cell-based, human; conditions: for Cellular activity in TNBCs (MDA-MB231), alamarBlue: Fig.1f, replicates
Description: as §4, §5, §6, §7

ES-2 cells = experiment: Clonogenic (colony formation) assay, ES-2; type: cell-based, human; conditions: ES-2, 250 nM, 5 days
Description: as §1, §2, §3

[4] = tested on: BRD4 binding to the HIF1α promoter; design: method as in PMID 30224758, PMID 29054992; conditions: MDA-MB 231 cells ref 45, 46; cited from earlier work

## Cc1sc2c(c1C)C(c1ccc(Cl)cc1)=N[C@@H](CC(=O)OC(C)(C)C)c1nnc(C)n1-2 [JQ1, reference compound]
[1]
  effect on phosphorylated BRD4 and c-MYC (western blot): no effect
H526 cells
  Clone Number (clonogenic assay): 627 and 705 and 686 and 632 and 603
MDA-MB231 cells
  Clone Number (clonogenic assay): 1294 and 1205 and 1074 and 1155 and 1020
[2]; 72 h treatment, nM, read-out: IC50, cellular activity in NCI-H211 (alamarBlue)
  IC50: 102 nM
[2]; concentration 0.0169701
  Cellular activity in SCLCs (H211), alamarBlue: 8.89 and 26.86
[2]; concentration 0.0398488
  Cellular activity in SCLCs (H211), alamarBlue: 1.52 and 21.49
[2]; concentration 0.137272
  Cellular activity in SCLCs (H211), alamarBlue: 0.75 and 21.87
[2]; concentration 0.614394
  Cellular activity in SCLCs (H211), alamarBlue: 3.74 and 1.29
[2]; concentration 1.09152
  Cellular activity in SCLCs (H211), alamarBlue: 4.01 and 4.44
[2]; concentration 1.56864
  Cellular activity in SCLCs (H211), alamarBlue: 8.74 and 4.85
[2]; concentration 2.04576
  Cellular activity in SCLCs (H211), alamarBlue: 60.7 and 49.9
[2]; concentration 3
  Cellular activity in SCLCs (H211), alamarBlue: 94.26 and 94.75
[2]; concentration column prints 2.52288
  Cellular activity in SCLCs (H211), alamarBlue: 94.02 and 94.2
A2780 cells
  Clone Number (clonogenic assay): 839 and 794 and 803 and 802 and 753
[3]; 72 h treatment, nM, read-out: IC50, cellular activity in MDA-MB231 (alamarBlue)
  IC50: 65 nM
[3]; concentration 0.15
  Cellular activity in TNBCs (MDA-MB231), alamarBlue: 0.75 and 21.87
[3]; concentration 0.6
  Cellular activity in TNBCs (MDA-MB231), alamarBlue: 3.74 and 1.29
[3]; concentration 1
  Cellular activity in TNBCs (MDA-MB231), alamarBlue: 19.01 and 19.44
[3]; concentration 1.5
  Cellular activity in TNBCs (MDA-MB231), alamarBlue: 38.74 and 34.85
[3]; concentration 2
  Cellular activity in TNBCs (MDA-MB231), alamarBlue: 60.7 and 49.9
[3]; concentration 2.5
  Cellular activity in TNBCs (MDA-MB231), alamarBlue: 94.02 and 94.2
[3]; concentration 3
  Cellular activity in TNBCs (MDA-MB231), alamarBlue: 94.26 and 94.75
[3]; concentration -0.3
  Cellular activity in TNBCs (MDA-MB231), alamarBlue: 1.52 and 21.49
[3]; concentration -0.9
  Cellular activity in TNBCs (MDA-MB231), alamarBlue: 8.89 and 26.86
ES-2 cells
  Clone Number (clonogenic assay): 575 and 505 and 619 and 501 and 621
[4]
  BRD4 binding to the HIF1α promoter (ChIP-seq): reduced BRD4 binding to the HIF1α promoter
